Key:
[1] = test system: blackgrass (Alopecurus myosuroides); experiment: Test C preemergence, blackgrass; assay type: in vivo; settings: 0 is no effect, 100 is complete control
How it was run: (§1)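 Ratings run from 0, meaning no effect, up to 100, meaning complete control, judged by eye against untreated plants. Treatment was a directed soil spray before emergence or a postemergence spray on 2–10 cm seedlings, with evaluation 10 or 12 days later.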

corn (Zea mays) [2] = experiment: Test C preemergence, corn; assay type: in vivo; settings: 0 is no effect, 100 is complete control
How it was run: (§2)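 Herbicidal effect was estimated visually on a 0–100 scale 10 or 12 days after spraying. Formulation: non-phytotoxic solvent mixture with surfactant. Timing: directed soil spray after sowing, or postemergence on seedlings bearing one or two leaves.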

[3] = test system: foxtail, giant (giant foxtail, Setaria faberi); experiment: Test C preemergence, giant foxtail; assay type: in vivo; settings: 0 is no effect, 100 is complete control
How it was run: as §1

[4] = test system: goosegrass (Eleusine indica); experiment: Test C preemergence, goosegrass; assay type: in vivo; settings: 0 is no effect, 100 is complete control
How it was run: as §2

kochia (Bassia scoparia) [5] = experiment: Test C preemergence, kochia; assay type: in vivo; settings: 0 is no effect, 100 is complete control
How it was run: as §1

[6] = test system: oat, wild (wild oat, Avena fatua); experiment: Test C preemergence, wild oat; assay type: in vivo; settings: 0 is no effect, 100 is complete control
How it was run: as §1

[7] = test system: pigweed, palmer (palmer amaranth, Amaranthus palmeri); experiment: Test C preemergence, palmer amaranth; assay type: in vivo; settings: 0 is no effect, 100 is complete control
How it was run: as §1

[8] = test system: ragweed (common ragweed, Ambrosia artemisiifolia); experiment: Test C preemergence, ragweed; assay type: in vivo; settings: 0 is no effect, 100 is complete control
How it was run: as §2

[9] = test system: ryegrass, Italian (Italian ryegrass, Lolium multiflorum); experiment: Test C preemergence, Italian ryegrass; assay type: in vivo; settings: 0 is no effect, 100 is complete control
How it was run: as §1

soybean (Glycine max) [10] = experiment: Test C preemergence, soybean; assay type: in vivo; settings: 0 is no effect, 100 is complete control
How it was run: as §1

[11] = test system: wheat (Triticum aestivum); experiment: Test C preemergence, wheat; assay type: in vivo; settings: 0 is no effect, 100 is complete control
[12] = test system: blackgrass (Alopecurus myosuroides); experiment: Test C postemergence, blackgrass; assay type: in vivo; settings: 31 g ai/ha Postemergence; visual injury, 0 to 100 scale (0 no effect, 100 complete control)
How it was run: as §1

corn (Zea mays) [13] = experiment: Test C postemergence, corn; assay type: in vivo
[14] = test system: foxtail, giant (giant foxtail, Setaria faberi); experiment: Test C postemergence, giant foxtail; assay type: in vivo
[15] = test system: goosegrass (Eleusine indica); experiment: Test C postemergence, goosegrass; assay type: in vivo
How it was run: as §1

kochia (Bassia scoparia) [16] = experiment: Test C postemergence, kochia; assay type: in vivo
How it was run: as §1

[17] = test system: oat, wild (wild oat, Avena fatua); experiment: Test C postemergence, wild oat; assay type: in vivo
[18] = test system: pigweed, palmer (palmer amaranth, Amaranthus palmeri); experiment: Test C postemergence, palmer amaranth; assay type: in vivo
How it was run: as §1

[19] = test system: ragweed (common ragweed, Ambrosia artemisiifolia); experiment: Test C postemergence, ragweed; assay type: in vivo
How it was run: as §1

[20] = test system: ryegrass, Italian (Italian ryegrass, Lolium multiflorum); experiment: Test C postemergence, Italian ryegrass; assay type: in vivo
How it was run: as §1

soybean (Glycine max) [21] = experiment: Test C postemergence, soybean; assay type: in vivo
[22] = test system: wheat (Triticum aestivum); experiment: Test C postemergence, wheat; assay type: in vivo
How it was run: as §1

[23] = test system: galium (catchweed bedstraw, Galium aparine); experiment: Test C postemergence, galium; assay type: in vivo
[24] = test system: horseweed (Erigeron canadensis); experiment: Test C postemergence, horseweed; assay type: in vivo
How it was run: as §1

[25] = test system: barnyardgrass (Echinochloa crusgalli); experiment: Test D flooded paddy test, barnyardgrass; assay type: in vivo; set-up: key: 0 = no effect, 100 = complete control; settings: 250 g ai/ha, Flood; applied to paddy water at 2-leaf stage; visual rating after 13 days; scale 0 (no effect) to 100 (complete control)
How it was run: (§3)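 Plants were grown to the 2-leaf stage, then pots were flooded to 3 cm above soil and compounds applied directly into the paddy water, with that depth held throughout. After 13 days in a greenhouse, injury was visually rated against untreated controls on a 0–100 scale (0 no effect, 100 complete control).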

[26] = test system: ducksalad (Heteranthera limosa); experiment: Test D flooded paddy test, ducksalad; assay type: in vivo; set-up: key: 0 = no effect, 100 = complete control; settings: 250 g ai/ha, Flood; applied to paddy water at 2-leaf stage; visual rating after 13 days; scale 0 (no effect) to 100 (complete control)
How it was run: as §3

rice (Oryza sativa) = experiment: Test D flooded paddy test, rice; assay type: in vivo; set-up: key: 0 = no effect, 100 = complete control; settings: 250 g ai/ha, Flood; applied to paddy water at 2-leaf stage; visual rating after 13 days; scale 0 (no effect) to 100 (complete control)
How it was run: as §3

[27] = test system: sedge, umbrella (small-flower umbrella sedge, Cyperus difformis); experiment: Test D flooded paddy test, umbrella sedge; assay type: in vivo; set-up: key: 0 = no effect, 100 = complete control; settings: 250 g ai/ha, Flood; applied to paddy water at 2-leaf stage; visual rating after 13 days; scale 0 (no effect) to 100 (complete control)
How it was run: as §3

[28] = test system: blackgrass (Alopecurus myosuroides); experiment: Test C postemergence, blackgrass; assay type: in vivo; settings: 125 g ai/ha Postemergence; 0 is no effect, 100 is complete control
[29] = 31 g ai/ha Postemergence, visual injury, 0 to 100 scale (0 no effect, 100 complete control)
[30] = 125 g ai/ha Postemergence, 0 is no effect, 100 is complete control

In the case of `CCO/N=C1\CCN(c2cc(NS(=O)(=O)C(F)(F)F)c(C)cc2C)C1=O` [Compound 12, N-[5-[3-(ethoxyimino)-2-oxo-1-pyrrolidinyl]-2,4-dimethylphenyl]-1,1,1-trifluoromethanesulfonamide], the “Plant response rating (0 to 100 scale), Blackgrass” value ([1]; 31 g ai/ha Preemergence) is reported as 80, the “Plant response rating (0 to 100 scale), Blackgrass” value ([1]; 125 g ai/ha Preemergence) is reported as 100 and the “Plant response rating (0 to 100 scale), Corn” value (corn (Zea mays) [2]; 31 g ai/ha Preemergence) is reported as 70. The “Plant response rating (0 to 100 scale), Corn” value (corn (Zea mays) [2]; 125 g ai/ha Preemergence) was 100, the “Plant response rating (0 to 100 scale), Foxtail, Giant” value ([3]; 31 g ai/ha Preemergence) was 100 and the “Plant response rating (0 to 100 scale), Foxtail, Giant” value ([3]; 125 g ai/ha Preemergence) was 100. The “Plant response rating (0 to 100 scale), Goosegrass” value ([4]; 31 g ai/ha Preemergence) was 90, the “Plant response rating (0 to 100 scale), Goosegrass” value ([4]; 125 g ai/ha Preemergence) was 100 and the “Plant response rating (0 to 100 scale), Kochia” value (kochia (Bassia scoparia) [5]; 31 g ai/ha Preemergence) was 100. For the same compound, the “Plant response rating (0 to 100 scale), Kochia” value (kochia (Bassia scoparia) [5]; 125 g ai/ha Preemergence) was 100, the “Plant response rating (0 to 100 scale), Oat, Wild” value ([6]; 31 g ai/ha Preemergence) was 90 and the “Plant response rating (0 to 100 scale), Oat, Wild” value ([6]; 125 g ai/ha Preemergence) was 100. The “Plant response rating (0 to 100 scale), Pigweed, Palmer” value ([7]; 31 g ai/ha Preemergence) was 100, the “Plant response rating (0 to 100 scale), Pigweed, Palmer” value ([7]; 125 g ai/ha Preemergence) was 100 and the “Plant response rating (0 to 100 scale), Ragweed” value ([8]; 31 g ai/ha Preemergence) was 100. The “Plant response rating (0 to 100 scale), Ragweed” value ([8]; 125 g ai/ha Preemergence) was 100, the “Plant response rating (0 to 100 scale), Ryegrass, Italian” value ([9]; 31 g ai/ha Preemergence) was 90 and the “Plant response rating (0 to 100 scale), Ryegrass, Italian” value ([9]; 125 g ai/ha Preemergence) was 100. For the same compound, the “Plant response rating (0 to 100 scale), Soybean” value (soybean (Glycine max) [10]; 31 g ai/ha Preemergence) was 90, the “Plant response rating (0 to 100 scale), Soybean” value (soybean (Glycine max) [10]; 125 g ai/ha Preemergence) was 100 and the “Plant response rating (0 to 100 scale), Wheat” value ([11]; 31 g ai/ha Preemergence) was 90. For the same compound, the “Plant response rating (0 to 100 scale), Wheat” value ([11]; 125 g ai/ha Preemergence) was 100, the “Blackgrass plant response rating” value [12] was 80 and the “Corn plant response rating” value (corn (Zea mays) [13]; [29]) was 100. The “Plant response rating (0 to 100 scale), Corn” value (corn (Zea mays) [13]; [30]) was 100, the “Foxtail, Giant plant response rating” value [14, 29] was 90 and the “Plant response rating (0 to 100 scale), Foxtail, Giant” value [14, 30] was 90. The “Goosegrass plant response rating” value [15, 29] was 100, the “Plant response rating (0 to 100 scale), Goosegrass” value [15, 30] was 100 and the “Kochia plant response rating” value (kochia (Bassia scoparia) [16]; [29]) was 90. For the same compound, the “Plant response rating (0 to 100 scale), Kochia” value (kochia (Bassia scoparia) [16]; [30]) was 90, the “Oat, Wild plant response rating” value [17, 29] was 90 and the “Plant response rating (0 to 100 scale), Oat, Wild” value [17, 30] was 90. The “Pigweed, Palmer plant response rating” value [18, 29] was 80, the “Plant response rating (0 to 100 scale), Pigweed, Palmer” value [18, 30] was 100 and the “Ragweed plant response rating” value [19, 29] was 90. The “Plant response rating (0 to 100 scale), Ragweed” value [19, 30] was 90, the “Ryegrass, Italian plant response rating” value [20, 29] was 70 and the “Plant response rating (0 to 100 scale), Ryegrass, Italian” value [20, 30] was 80. The “Soybean plant response rating” value (soybean (Glycine max) [21]; [29]) was 100, the “Plant response rating (0 to 100 scale), Soybean” value (soybean (Glycine max) [21]; [30]) was 100 and the “Wheat plant response rating” value [22, 29] was 80. The “Plant response rating (0 to 100 scale), Wheat” value [22, 30] was 90, the “Galium plant response rating” value [23, 29] was 100 and the “Plant response rating (0 to 100 scale), Galium” value [23, 30] was 100. For the same compound, the “Horseweed plant response rating” value [24, 29] was 90, the “Plant response rating (0 to 100 scale), Horseweed” value [24, 30] was 100 and the “Plant response rating, Barnyardgrass” value [25] was 0. The “Plant response rating, Ducksalad” value [26] was 100, the “Plant response rating, Rice” value (rice (Oryza sativa)) was 40 and the “Plant response rating, Sedge, Umbrella” value [27] was 100. The melting point was 201 to 204 °C and the “Plant response rating (0 to 100 scale), Blackgrass” value [28] was 100.
